Test results taken from patent US20250049939A1, “NOVEL FLT3 ANTIBODIES AND ANTIBODY-DRUG-CONJUGATES BASED THEREON, THERAPEUTIC METHODS AND USES THEREOF IN COMBINATION WITH TYROSINE KINASE INHIBITORS” (TUBULIS GmbH, priority 2021, published 2025).
Square brackets hold non-standard residues; d marks the D form. Peptide text beside a SMILES is read from it. Dolaproine = CO[C@@H]([C@@H]1CCCN1)[C@@H](C)C(=O)O; Dil = CC[C@H](C)[C@H](NC)[C@@H](CC(=O)O)OC; NMeV = CN[C@H](C(=O)O)C(C)C

Columns and labels:
[1] = biological target: T1, Ba/F3 cells expressing human wildtype FLT3 (Homo sapiens, UniProt P36888); experiment: Cytotoxicity in Ba/F3 hFLT3 wt, 72 h; conditions: Ba/F3 cells expressing the empty vector or human wild type FLT3
T1 sequence (P36888 27-993): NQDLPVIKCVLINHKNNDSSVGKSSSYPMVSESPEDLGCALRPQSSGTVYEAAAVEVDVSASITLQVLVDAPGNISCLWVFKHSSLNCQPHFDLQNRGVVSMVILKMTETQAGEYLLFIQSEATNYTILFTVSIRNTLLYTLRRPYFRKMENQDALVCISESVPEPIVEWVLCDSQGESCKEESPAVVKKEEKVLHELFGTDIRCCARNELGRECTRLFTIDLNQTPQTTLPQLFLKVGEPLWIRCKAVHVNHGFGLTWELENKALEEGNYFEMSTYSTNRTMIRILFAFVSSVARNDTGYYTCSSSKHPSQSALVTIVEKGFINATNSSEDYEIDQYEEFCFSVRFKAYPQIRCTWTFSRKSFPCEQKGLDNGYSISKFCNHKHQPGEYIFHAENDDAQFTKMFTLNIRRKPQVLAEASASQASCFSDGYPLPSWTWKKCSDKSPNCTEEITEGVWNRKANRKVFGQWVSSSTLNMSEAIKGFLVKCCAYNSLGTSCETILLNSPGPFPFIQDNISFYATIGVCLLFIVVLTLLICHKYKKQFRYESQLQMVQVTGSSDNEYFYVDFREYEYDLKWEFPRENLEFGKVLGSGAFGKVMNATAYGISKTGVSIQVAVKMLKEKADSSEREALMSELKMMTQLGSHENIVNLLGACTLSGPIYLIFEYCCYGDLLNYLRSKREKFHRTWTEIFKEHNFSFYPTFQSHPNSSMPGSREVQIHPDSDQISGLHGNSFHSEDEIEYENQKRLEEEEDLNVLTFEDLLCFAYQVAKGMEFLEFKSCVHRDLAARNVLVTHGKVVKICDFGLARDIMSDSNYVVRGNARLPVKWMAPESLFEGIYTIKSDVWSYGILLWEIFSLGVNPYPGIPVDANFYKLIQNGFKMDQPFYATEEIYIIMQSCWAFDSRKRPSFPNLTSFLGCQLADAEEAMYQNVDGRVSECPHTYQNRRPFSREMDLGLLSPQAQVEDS
Description: (§1) (A) Schematic process of P5 conjugation technology via disulfite bond reduction and Staudinger induced Michael addition. Final ADC consists of monoclonal antibody (20D9 or IgG1 antibody) coupled to monomethyl-auristatin F toxin. Figure was created with BioRender.com. (B-E,G) Assessment of cytotoxicity of ADCs in different Ba/F3 cell lines. Viability was determined after 72 h treatment with different concentrations by trypan blue exclusion count and compared to untreated control. Mean±s.d. of n=3 biological replicates. […] Calculation based on data from FIGS. 2E and 2G calculated by GraphPad Prism. Unpaired, two-tailed Student's t-test; *p<0.05. Each dot represents a replicate, horizontal line indicates mean.
(§2) AML cells were treated once (d0) and viability was determined after 96h using Resazurin solution (50 µM final concentration, 4 h incubation) (R12204, Thermo Fisher Scientific). For Ba/F3 cell assays, cells were treated once (d0) and viable cells were counted after 72 h on Vi-Cell Cell Viability Analyzer (Beckman Coulter, Krefeld, Germany). Calculation of IC50 values were performed using GraphPad Prism version 6.07 (GraphPad Software, La Jolla, CA, USA).

[2] = tested on: FLT3 cell surface expression in MOLM-13 cells; experiment: FLT3 cell surface expression in MOLM-13 after kinase inhibitors, flow cytometry; assay type: cell-based, human; conditions: 6, 24, 48 and 72 h incubation
Description: Cells were analyzed in flow cytometry after treatment. Dotted line represents MFI ratio of untreated cells. Mean±s.d. of n=2 is depicted. […] Grey triangles indicate increasing drug concentrations. […] Mean±standard deviation is depicted.

[3] = tested on: CD34 positive healthy bone marrow (BM) cells; experiment: Differentiation assessment of healthy CD34+ cells; conditions: 1 μg/ml
Description: (§3) (D) Differentiation assessment after staining to differentiation markers. CMP: common myeloid GMP: progenitors; granulocyte-monocyte progenitors; MEP: megakaryocyte/erythroid progenitors; MLP: multilymphoid progenitors; MPP: multipotent progenitors; hematopoietic stem cells (HSC). (E) Assessment of clonogenic capacity of healthy CD34+ BM cells. […] After 14 days, colonies were counted. GEMM: granulocyte, erythrocyte, macrophage, megakaryocyte. GM: granulocyte, macrophage. M: macrophage. G: granulocyte. E: erythrocyte. BFU-E: burst-forming unit erythrocyte. CFU: colony forming unit. 2way ANOVA; *p<0.05; Mean±s.d. of n=5.

[4] = tested on: CD34 positive healthy bone marrow (BM) cells; experiment: Viability of healthy CD34+ bone marrow cells, Annexin V/PI, 4 days; conditions: 1000 ng/ml
Description: (C) Percentage of living cells measured with Annexin V/PI staining and normalized to PBS.

[5] = tested on: Ba/F3 cells expressing both FLT3 and CD64; experiment: Cytotoxicity in Ba/F3-CD64-FLT3, 72 h; assay type: cell-based, human
Description: as §1, §2

healthy CD34+ BM cells = conditions: 1 μg/ml
Description: as §3

MOLM-13 xenograft = MOLM-13 xenograft in NSG mice, bioluminescence imaging; assay type: in vivo; conditions: 3 mg/kg; Q1W×2
[6] = tested on: Ba/F3-pMIY-CD64 expressing cells; experiment: Cytotoxicity in Ba/F3-pMIY-CD64, 72 h; assay type: cell-based, human
Description: as §1, §2

MOLM-13 cells = experiment: Cytotoxicity in MOLM-13, 96 h resazurin; assay type: cell-based, human
Excerpt: (A) Correlation of MFI of CD64 cell surface expression and MFI of FLT3 cell surface expression of myeloid human cell lines measure in flow cytometry. Expression data presented in Supplementary FIGS. 4A and B. Black line indicates simple linear regression with error interval. r=Pearson correlation coefficient; r^2=Coefficient of determination; p=p value from two tailed test with confidence interval of 95%. MFI=mean fluorescence intensity. (B,C,E,F) Assessment of cytotoxicity of ADCs in different human cell lines. Viability was determined after 96h treatment with different concentrations of ADCs by resazurin fluorescence and normalized to untreated control. Dashed line indicates 100 ng/ml drug concentration. Mean±s.d. of n=3 biological replicates. […] Black line indicates simple linear regression with error interval. (E) Treatment of FLT3 positive human cell lines with IgG1-ADC.

CC[C@H](C)[C@@H]([C@@H](CC(=O)N1CCC[C@H]1[C@H](OC)[C@@H](C)C(=O)N[C@@H](Cc1ccccc1)C(=O)O)OC)N(C)C(=O)[C@@H](NC(=O)[C@@H](NC)C(C)C)C(C)C [MMAF, monomethyl auristatin F] (H-[NMeV]V[Dil][Dolaproine]F-OH)
Cytotoxicity of controls [1]: no difference in cytotoxicity

CNC(=O)c1cc(Oc2ccc(NC(=O)Nc3ccc(Cl)c(C(F)(F)F)c3)cc2)ccn1 [Sorafenib]
FLT3 cell surface expression [2]: increase of FLT3 cell surface expression

IgG1-ADC: MMAF conjugated to the IgG1 based antibody palivizumab; CD64 but no FLT3 binding
Differentiation: cell populations of CD34+ cells [3]: significantly decreased MLPs, CMPs, and GMPs but to a lower extent compared to the 20D9 ADC | Cell viability of CD34+ cells [4]: significantly decreased cell viability | Cytotoxicity of controls [1]: no cytotoxicity | IC50, Ba/F3 expressing both FLT3 and CD64 [5]: 0.0783 µg/mL | Clonogenic capacity (CFU) (healthy CD34+ BM cells): significantly reduced granulocytic, monocytic and granulocytic-macrophagic colony formation | Anti tumor effect, native and deglycosylated ADCs (MOLM-13 xenograft): reduced compared to native 20D9-ADC | IC50, Ba/F3-pMIY-CD64 [6]: 31.8 ng/ml

deglycosylated IgG1-ADC: IgG1-ADC with N-linked glycans removed
Activity on MOLM-13 cells (MOLM-13 cells): no activity | Anti tumor effect, native and deglycosylated ADCs (MOLM-13 xenograft): only a minimal effect compared to PBS control mice
